Data taken from patent US4740233A, “Substituted 1,2,4-triazolo[1,5-a]-pyrimidine-2-sulfonamides and compositions and methods of controlling undesired vegetation and suppressing the nitrification of ammonium nitrogen in soil” (The Dow Chemical Company, priority 1986, dated 1988).

Experiments:
[1] = test system: crabgrass; experiment: Postemergent control of plant species; format: in vivo, Digitaria spp.; conditions: Digitaria sanguinalis, post-emergence, 336 h, read-out: percent postemergent control
Outline: (§1)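 Each compound is dissolved in acetone, mixed with an equal volume of 0.1% surfactant water, and sprayed on plants grown to 2-4 leaves in nutrient soil. Treated and untreated beds sit under identical greenhouse temperature and light for roughly two weeks before growth reduction is rated.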

[2] = test system: corn; experiment: Postemergent control of plant species; format: in vivo, Zea mays; conditions: Zea mays, post-emergence, 336 h, read-out: percent postemergent control
Outline: as §1

[3] = test system: pigweed; experiment: Postemergent control of plant species; format: in vivo, Amaranthus spp.; conditions: Amaranthus retroflexus, post-emergence, 336 h, read-out: percent postemergent control
Outline: as §1

[4] = test system: yellow foxtail; experiment: Postemergent control of plant species; format: in vivo, Setaria lutescens; conditions: Setaria, post-emergence, 336 h, read-out: percent postemergent control
Outline: as §1

[5] = test system: rice; experiment: Postemergent control of plant species; format: in vivo, Oryza sativa; conditions: Oryza sativa, post-emergence, 336 h, read-out: percent postemergent control
Outline: as §1

[6] = test system: sorghum; experiment: Postemergent control of plant species; format: in vivo, Sorghum vulgare; conditions: Sorghum, post-emergence, 336 h, read-out: percent postemergent control
Outline: as §1

[7] = test system: velvetleaf; experiment: Postemergent control of plant species; format: in vivo, Abutilon theophrasti; conditions: Abutilon theophrasti, post-emergence, 336 h, read-out: percent postemergent control
Outline: as §1

[8] = test system: sugar beet; experiment: Postemergent control of plant species; format: in vivo, Beta saccharifera; conditions: Beta vulgaris, post-emergence, 336 h, read-out: percent postemergent control
Outline: as §1

[9] = test system: soybean; experiment: Postemergent control of plant species; format: in vivo, Glycine max.; conditions: Glycine max, post-emergence, 336 h, read-out: percent postemergent control
Outline: as §1

[10] = test system: wheat; experiment: Postemergent control of plant species; format: in vivo, Triticum aestivum; conditions: Triticum aestivum, post-emergence, 336 h, read-out: percent postemergent control
Outline: as §1

[11] = test system: cotton; experiment: Postemergent control of plant species; format: in vivo, Gossypium spp.; conditions: Gossypium hirsutum, post-emergence, 336 h, read-out: percent postemergent control
Outline: as §1

[12] = test system: yellow nutsedge; experiment: Postemergent control of plant species; format: in vivo, Cyperus esculentus; conditions: Cyperus, post-emergence, 336 h, read-out: percent postemergent control
Outline: as §1

[13] = test system: annual morning glory; experiment: Postemergent control of plant species; format: in vivo, Ipomoea spp.; conditions: Ipomoea, post-emergence, 336 h, read-out: percent postemergent control
Outline: as §1

[14] = test system: johnson grass; experiment: Postemergent control of plant species; format: in vivo, Sorghum halepense; conditions: Sorghum halepense, post-emergence, 336 h, read-out: percent postemergent control
Outline: as §1

[15] = test system: wild oats; experiment: Postemergent control of plant species; format: in vivo, Avena fatua; conditions: Avena fatua, post-emergence, 336 h, read-out: percent postemergent control
Outline: as §1

[16] = test system: cocklebur; experiment: Postemergent control of plant species; format: in vivo, Xanthium spp.; conditions: Xanthium strumarium, post-emergence, 336 h, read-out: percent postemergent control
Outline: as §1

[17] = test system: jimsonweed; experiment: Postemergent control of plant species; format: in vivo, Datura stramonium; conditions: Datura stramonium, post-emergence, 336 h, read-out: percent postemergent control
Outline: as §1

[18] = test system: rape; experiment: Postemergent control of plant species; format: in vivo, Brassica napus; conditions: Brassica napus, post-emergence, 336 h, read-out: percent postemergent control
Outline: as §1

[19] = test system: barnyardgrass; experiment: Postemergent control of plant species; format: in vivo, Echinochloa crusgalli; conditions: Echinochloa crus-galli, post-emergence, 336 h, read-out: percent postemergent control
Outline: as §1

[20] = test system: nitrification of ammonium nitrogen; experiment: Suppression of nitrification of ammonium nitrogen in soil; conditions: 27° C.
Outline: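 Soil (20 g) moistened to its 1/3 bar tension value, mixed with test chemical and incubated sealed for two weeks at 27° C. Nitrate extracted with ammonium sulfate solution and measured by nitrate-specific ion electrode; value given as % NH4-N remaining.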

[21] = test system: annual morning glory; experiment: Preemergent control of plant species; format: in vivo, Ipomoea spp.; conditions: Ipomoea, pre-emergence, 336 h; 0.25 lb/acre; read-out: percent preemergent control
Outline: (§2)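 Preemergent application of aqueous emulsions at rates given in the table, uniformly over seeded greenhouse soil. Untreated (water) beds as comparison; rating after 2 weeks as reduction in growth.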

[22] = test system: yellow foxtail; experiment: Preemergent control of plant species; format: in vivo, Setaria lutescens; conditions: Setaria, pre-emergence, 336 h; 0.25 lb/acre; read-out: percent preemergent control
Outline: as §2

[23] = test system: jimsonweed; experiment: Preemergent control of plant species; format: in vivo, Datura stramonium; conditions: Datura stramonium, pre-emergence, 336 h; 0.25 lb/acre; read-out: percent preemergent control
Outline: as §2

[24] = test system: soybean; experiment: Preemergent control of plant species; format: in vivo, Glycine max.; conditions: Glycine max, pre-emergence, 336 h; 0.25 lb/acre; read-out: percent preemergent control
Outline: as §2

[25] = test system: wild oats; experiment: Preemergent control of plant species; format: in vivo; conditions: Avena fatua, pre-emergence, 336 h; 0.25 lb/acre; read-out: percent preemergent control
Outline: as §2

[26] = test system: johnson grass; experiment: Preemergent control of plant species; format: in vivo, Sorghum halepense; conditions: Sorghum halepense, pre-emergence, 336 h; 0.25 lb/acre; read-out: percent preemergent control
Outline: as §2

[27] = test system: rice; experiment: Preemergent control of plant species; format: in vivo, Oryza sativa; conditions: Oryza sativa, pre-emergence, 336 h; 0.25 lb/acre; read-out: percent preemergent control
Outline: as §2

[28] = test system: cotton; experiment: Preemergent control of plant species; format: in vivo, Gossypium spp.; conditions: Gossypium hirsutum, pre-emergence, 336 h; 0.25 lb/acre; read-out: percent preemergent control
Outline: as §2

[29] = test system: rape; experiment: Preemergent control of plant species; format: in vivo, Brassica napus; conditions: Brassica napus, pre-emergence, 336 h; 0.25 lb/acre; read-out: percent preemergent control
Outline: as §2

[30] = test system: velvetleaf; experiment: Preemergent control of plant species; format: in vivo, Abutilon theophrasti; conditions: Abutilon theophrasti, pre-emergence, 336 h; 0.25 lb/acre; read-out: percent preemergent control
Outline: as §2

[31] = test system: corn; experiment: Preemergent control of plant species; format: in vivo, Zea mays; conditions: Zea mays, pre-emergence, 336 h; 0.25 lb/acre; read-out: percent preemergent control
Outline: as §2

[32] = test system: wheat; experiment: Preemergent control of plant species; format: in vivo, Triticum aestivum; conditions: Triticum aestivum, pre-emergence, 336 h; 0.25 lb/acre; read-out: percent preemergent control
Outline: as §2

[33] = test system: barnyardgrass; experiment: Preemergent control of plant species; format: in vivo, Echinochloa crusgalli; conditions: Echinochloa crus-galli, pre-emergence, 336 h; 0.25 lb/acre; read-out: percent preemergent control
Outline: as §2

[34] = test system: sugar beet; experiment: Preemergent control of plant species; format: in vivo, Beta saccharifera; conditions: Beta vulgaris, pre-emergence, 336 h; 0.25 lb/acre; read-out: percent preemergent control
Outline: as §2

[35] = test system: sorghum; experiment: Preemergent control of plant species; format: in vivo, Sorghum vulgare; conditions: Sorghum, pre-emergence, 336 h; 0.25 lb/acre; read-out: percent preemergent control
Outline: as §2

[36] = test system: yellow nutsedge; experiment: Preemergent control of plant species; format: in vivo, Cyperus esculentus; conditions: Cyperus, pre-emergence, 336 h; 0.25 lb/acre; read-out: percent preemergent control
Outline: as §2

Compound | pest or weed control at 500 ppm [1] | plant injury at 500 ppm [2] | pest or weed control at 500 ppm [3] | pest or weed control at 500 ppm [4] | plant injury at 500 ppm [5] | plant injury at 500 ppm [6] | pest or weed control at 500 ppm [7] | plant injury at 500 ppm [8] | plant injury at 500 ppm [9] | plant injury at 500 ppm [10] | plant injury at 500 ppm [11] | pest or weed control at 500 ppm [12] | pest or weed control at 500 ppm [13] | pest or weed control at 500 ppm [14] | pest or weed control at 500 ppm [15] | pest or weed control at 500 ppm [16] | pest or weed control at 500 ppm [17] | plant injury at 500 ppm [18] | pest or weed control at 500 ppm [19] | % NH4-N Remaining After 2 Weeks Incubation ([20]; 0.01 ppm) | other results
O=S(=O)(Nc1ccccc1C(F)(F)F)c1nc2ncccn2n1 [Compound 136] | 0% | 0% | 90% | 0% | 0% | 0% | 70% | 80% | 30% | 0% | 30% | 0% | 40% | 0% | 0% | 98% | 30% | 80% | 0% | 0% | % NH4-N Remaining After 2 Weeks Incubation ([20]; 0.1 ppm): 10%; % NH4-N Remaining After 2 Weeks Incubation ([20]; 1 ppm): 67%; % NH4-N Remaining After 2 Weeks Incubation ([20]; 10 ppm): 98%
Cc1ccn2nc(S(=O)(=O)Nc3c(C)nn(C)c3C(F)(F)F)nc2n1 [Compound 246] | 75% | 0% | 100% | 90% | 70% | 95% | 70% | 100% | 85% | 0% | 80% | 80% | 50% | 75% | 0% | 90% | 80% | 70% | 50% | – | pest or weed control at 280.212 g/ha [21]: 0%; pest or weed control at 280.212 g/ha [22]: 20%; pest or weed control at 280.212 g/ha [23]: 0%; plant injury at 280.212 g/ha [24]: 90%; pest or weed control at 280.212 g/ha [25]: 40%; pest or weed control at 280.212 g/ha [26]: 20%; plant injury at 280.212 g/ha [27]: 20%; plant injury at 280.212 g/ha [28]: 80%; plant injury at 280.212 g/ha [29]: 80%; pest or weed control at 280.212 g/ha [30]: 30%; plant injury at 280.212 g/ha [31]: 20%; plant injury at 280.212 g/ha [32]: 10%; pest or weed control at 280.212 g/ha [33]: 0%; plant injury at 280.212 g/ha [34]: 90%; plant injury at 280.212 g/ha [35]: 95%; pest or weed control at 280.212 g/ha [36]: 20%
Cc1cc(C)n2nc(S(=O)(=O)Nc3ccc(F)cc3Cl)nc2n1 [Compound 30] | 0% | 0% | 0% | 0% | 20% | 0% | 40% | 0% | 30% | 0% | 0% | 0% | 60% | 0% | 0% | 40% | 0% | 40% | 0% | 0% | % NH4-N Remaining After 2 Weeks Incubation ([20]; 0.1 ppm): 6%; % NH4-N Remaining After 2 Weeks Incubation ([20]; 1 ppm): 54%; % NH4-N Remaining After 2 Weeks Incubation ([20]; 10 ppm): 81%
